Assay results published in publication PMC6383986, “Fragment-Based Covalent Ligand Screening Enables Rapid Discovery of Inhibitors for the RBR E3 Ubiquitin Ligase HOIP” (Journal of the American Chemical Society, 2019).

Molecular target: T1, wild type HOIP RBR domain (Homo sapiens, UniProt Q96EP0)
T1 construct: made in house; host or cells: E. coli BL21-GOLD(DE3)
T1 sequence (Q96EP0 697-1072): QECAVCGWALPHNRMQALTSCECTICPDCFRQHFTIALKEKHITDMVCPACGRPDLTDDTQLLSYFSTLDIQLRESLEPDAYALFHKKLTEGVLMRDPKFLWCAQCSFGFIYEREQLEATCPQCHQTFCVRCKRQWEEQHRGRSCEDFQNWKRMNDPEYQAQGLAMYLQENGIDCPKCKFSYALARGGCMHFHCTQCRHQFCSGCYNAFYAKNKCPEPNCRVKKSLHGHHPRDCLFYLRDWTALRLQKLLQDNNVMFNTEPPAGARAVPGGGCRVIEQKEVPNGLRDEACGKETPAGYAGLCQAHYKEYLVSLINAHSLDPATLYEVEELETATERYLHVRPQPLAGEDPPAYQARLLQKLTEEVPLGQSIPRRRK
Assay: Protein LC-MS kinetics of covalent labeling
Type: binding
Description: negative control and compound solutions data points were acquired after 0.5, 4, and 24 h […]
Protocol as described above, using the HOIP RBR C885S mutant (155 µM stock solution in 50 mM HEPES, 150 mM NaCl, 1 mM DTT, pH 7.5) and 50 mM HEPES, 150 mM NaCl, pH 7.5 buffer.
The stock solution at 4 µM (25 µL per sample, final concentration 2 µM, 87 µg/mL), was mixed with buffer (24.5 µL) and compound (5) (0.5 µL of 2, and 20 mM stock solutions in DMSO, giving a final concentration of 20 and 200 µM respectively, and 1% DMSO). Data points were acquired after 0.5 and 4 h incubation.
The HOIP RBR domain wild type was diluted with 50 mM HEPES, 150 mM NaCl, pH 7.5 buffer to afford a new stock solution at 2.02 µM, which was aliquoted into 10 × 297 µL. Compound (5) stock solutions (3.0 µL each) at 0, 0.2, 0.8, 2, 4, 10, 20 and 40 mM in DMSO were added to give final compound concentrations at 0, 2, 8, 20, 40, 100, 200 and 400 µM respectively. Immediately after addition the samples were vortexed briefly and the time zero aliquots (25 µL) withdrawn, flash frozen in liquid nitrogen and stored at -80 °C. The protein solutions were incubated at 800 rpm (Eppendorf Thermomixer), 23 °C. Additional aliquots (all 25 µL) were similarly withdrawn after […]
thawed individually and analyzed by protein mass spectrometry as described above. The total ion counts (TICs) detected for unlabelled HOIP and labelled HOIP-(5) conjugate within a peak elution range of 10 seconds were used to calculate the ratio of labelled HOIP RBR over total HOIP RBR content for each sample. The averaged data from 3 independent experiments were analyzed according to a two-step model of reversible ligand binding followed by irreversible covalent modification (Supplementary Figure S2A),11 fitted to a single exponential equation (equation 1, Supplementary Figure S2B) using GraFit (v.7). The observed rate constants (kobs) relate to Kd and kinact as depicted in equation 2 (Supplementary Figure S2C), although for compounds with weak affinities (such as fragments) the Kd is typically larger than the highest tested compound concentration (limited by aqueous solubility), and the kobs display a linear relationship to compound concentration, and a slope that equals to kinact/Kd (Figure 3D, Supplementary Figure […]
Protein labelling: The HOIP RBR domain (16 µM) in buffer (50 mM HEPES, 150 mM NaCl, pH 7.5) was incubated with compound (5) (267 µM; 16-fold excess) at ambient temperature at 600 rpm (Heidolph Instruments) for 21 h. The protein was purified on a buffer exchanged spin chromatography column (Micro Bio-spin 6, Bio-Rad Laboratories) according to the vendor’s instructions to afford a stock solution of the HOIP RBR-(5) complex at a concentration of 7.6 µM (0.33 mg/mL) as determined by Nanodrop UV spectrophotometer. […]

kinact/Kd (gradient of kobs vs concentration, 0-400 μM, 2 μM protein): 0.97 ± 0.01 M^–1 s^–1 | ligand efficiency, LE (inferred from lower limit of Kd): < 0.24 | kinact (lower limit, following from Kd limit): > 0.0004 s⁻¹ | Kd (lower limit, kobs linear across range tested): > 400 µM
Structure (SMILES): COC(=O)/C=C/CNC(=O)c1cc2c([nH]c1=O)CCC2 [Compound 5]
